Measured values taken from PMC5374710, “Discovery of the first dual GSK3β inhibitor/Nrf2 inducer. A new multitarget therapeutic strategy for Alzheimer’s disease” (Scientific Reports, 2017).

Test system: HO-1
Assay: HO-1 expression in AREc32 cells after scramble or GSK3β siRNA (western blot)
Type: cell-based, human
Settings: 10 μM, 24 h
Protocol: To further evaluate the potential relationship between GSK3β inhibition and the Nrf2 induction properties we used two different approaches. […] Cells were treated with compound 5m at increasing concentrations alone or in presence of Li (10 mM) during 24 h and thereafter, luciferase activity was evaluated. […] Secondly, to corroborate the independence of the Nrf2 induction properties of our derivatives from their GSK3β inhibitory properties, we used GSK3β knock down experimental conditions using siRNA. […] After knockdown of GSK3β, AREc32 cells were incubated with compound 5m (10 μM) during 24 h (Fig. 4B). Subsequently, luciferase activity and HO-1 expression were analyzed. […] Similar results were obtained when HO-1 expression was analyzed (Fig. 4D), compound 5m increased HO-1 expression 3.9 times after scramble treatment and 3.5 times after knockdown of GSK3β showing no statistical differences between both conditions. […]
Figure 4 Nrf2 induction properties are independent of the GSK3β inhibitory activity. […] (D) HO-1 expression induced by compound 5m (10 μM) measured at the same experimental conditions used previously. Values are expressed as mean ± SEM of three independent experiments in duplicate. ^###p < 0.001; ^##p < 0.01; ^#p < 0.05 compared to the correspondent basal conditions. […]

With Cc1[nH]nc2c1C(c1ccc(Br)cc1)C(C#N)=C(N)O2 (centres unmarked) [Compound 5m, 6-Amino-4-(4-bromophenyl)-3-methyl-2,4-dihydropyrano[2,3-c]pyrazole-5-carbonitrile] the HO-1 expression increase (after knockdown of GSK3β) was 3.5 times and the HO-1 expression increase (after scramble treatment) was 3.9 times.
